Data from patent publication US10322188B2, “Cell-penetrating drug carrier and the application thereof” (National Central University, priority 2014, dated 2019).
One block for each compound: values may come before it. Ends that are not written are not given here.

How the values were obtained:
trypsin = test: Protease stability test: trypsin digestion followed by RPC-UV280; type: in vitro ADME
From the text: It can be expected that drug carrier in vivo circulation will face to many bio-enzymes, wherein those bio-enzymes will cut the drug carrier. Before designing proper protection to those bio-enzymes, we hope to finger out the cutting result of the recognizable sequence-CPP (cell-penetrating peptide) by bio-enzymes. In this example, trypsin is employed as the bio-enzyme. Trypsin is a protease with selectivity, especially for cutting the carboxyl side of arginine (R) or lysine (K) of protein or peptide. In this example, when CPP is IL-R57F89, there are four arginine fragments in CPP being able to be cut by trypsin. Those four arginine fragments are R5, R7, R12, and R13.
FIG. 6A and FIG. 6B are respectively the RPC-UV280 spectra of IL-R57F89 and GPLSI-P17 digested by 0.1 g/mL trypsin. The gradient elution is 20-70% ACN, 5-30 min. In the spectra, there are sampling analysis results of 5, 10, 20, 30, 60, 120, and 240 min from top to bottom. […] According to this example, it can be noticed that it has to design a proper structure for keeping the recognizable sequence-CPP of drug carrier from cut by bio-enzyme(s) before the drug carrier achieving the target cell.
Subsequently, it is important to find out proper PEG length so that the PEG can provide protection to the recognizable sequence-CPP and the PEG will not impact the anchoring of the target cell to the recognizable sequence. FIG. 7B presents the trypsin digestion results of IL-R57F89, GPLSI-P17, PEG1K-GPLSI-P17, PEG2K-GPLSI-P17, PEG5K-GPLSI-P17, and PEG5K-GPLGI-P17. […] PEG1K-GPLSI-P17 is digested about 80% after 2 hours. After digesting for 4 hours, PEG2K-GPLSI-P17 and PEGSK-GPLSI-P17 are individually digested about 50% and 45%. It can be ensured that the PEG with proper length can efficiently keep the recognizable sequence-CPP from digested by bio-enzyme. And, when adjusting the PEG length with the length of the recognizable sequence-CPP, the protection of the PEG to the recognizable sequence-CPP can be optimized. For example, to those general recognizable sequence-CPP now, the proper length of PEG is about 1000-25000 Da.

MMP-2 = target: T1, MMP-2 (Homo sapiens, UniProt P08253); test: Digestion of recognizable sequence by MMP-2, followed by RPC / RP-HPLC; type: biochemical
T1 sequence (P08253 110-660): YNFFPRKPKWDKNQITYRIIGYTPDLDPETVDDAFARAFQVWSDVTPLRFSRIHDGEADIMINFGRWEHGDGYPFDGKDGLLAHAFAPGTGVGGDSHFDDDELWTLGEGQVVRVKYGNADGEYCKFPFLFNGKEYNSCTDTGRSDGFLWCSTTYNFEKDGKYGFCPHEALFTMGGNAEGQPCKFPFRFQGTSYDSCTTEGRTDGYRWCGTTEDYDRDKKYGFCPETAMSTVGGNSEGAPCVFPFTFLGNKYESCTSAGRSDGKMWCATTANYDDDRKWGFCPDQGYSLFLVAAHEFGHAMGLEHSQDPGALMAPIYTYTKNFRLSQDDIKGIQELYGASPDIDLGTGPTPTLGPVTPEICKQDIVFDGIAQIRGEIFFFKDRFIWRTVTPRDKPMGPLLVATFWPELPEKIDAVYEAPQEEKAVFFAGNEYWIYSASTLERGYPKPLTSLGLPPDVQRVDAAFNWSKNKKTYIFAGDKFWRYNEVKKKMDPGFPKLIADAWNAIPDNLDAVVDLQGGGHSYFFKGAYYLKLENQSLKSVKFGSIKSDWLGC
Description: In the experiment of employing MMP-2 to cut/digest recognizable sequence, after individually adding tryptophan (abbreviated symbol as “W”) at the C-terminus and the N-terminus of the recognizable sequence, the digestion of the recognizable sequence by MMP-2 can be followed by the character absorption wave length at 280 nm.
FIG. 4A to FIG. 4C respectively presents the reversed 1phase chromatography (RPC) analysis of 100 µM P1, P2, and P4 in Table 1 digested by 1 g/mL MMP-2. The gradient elution is 0-100% ACN, 50 min. […] Another recognizable sequence P4 with the same length as P3 and different amino acid fragments is designed.
The ILPW fragment from P4 digestion and the first four amino acid fragment of IL-R57F89 are the same. There are two MMP-2 cut-able sequences, GPLSI-P17 and GPLGI-P17, designed with the sequence individually as GPLS-ILPWRWRFFPWRR (SEQ ID NO: 11) and GPLG-ILPWRWRFFPWRR (SEQ ID NO: 10). The RP-HPLC analysis of GPLSI-P17 and GPLGI-P17 digested by MMP-2 are shown as FIG. 5A and FIG. 5B. It should be noticed that we ensure the peak of IL-R57F89 before the digestion of GPLSI-P17 and GPLGI-P17. […] Therefore, GPLSI-P17 and GPLGI-P17 can be employed as the recognizable sequence of this application.
Including providing protection to recognizable sequence-CPP, proper PEG length will not impact the anchoring of the target cell to the recognizable sequence. Therefore, we try to finger out the effect of the PEG length to the following anchoring. PEG5K-GPLSI-P17 and PEG5K-GPLGI-P17 are individually dissolved in pH 7.4 HEPES buffer. MMP-2 is added into the above solutions and the final concentration is about 1 g/mL. The solutions are independently reacted at 37° C. for 24 hours. The reaction results are analyzed by RPC and shown as FIG. 8A and FIG. 8B.

HepG2 cells [1] = test: Cell viability of HepG2 cells incubated with peptide, DOX or a mixture for 1 hour and 6 hours; type: cell-based; conditions: 25 µM peptide, 25 µM DOX or mixed solution of both; incubating for 1 hour and 6 hours; FIG. 1A
Description: In this example, HepG2 cells are individually incubated in 25 µM peptide solution, 25 µM DOX, and a mixed solution of 25 µM DOX and 25 µM peptide. And the cell viability of the mentioned HepG2 cells is followed after incubating for 1 hour and 6 hours.

HepG2 cell = test: Cytotoxicity test on HepG2 cells, 24 hours; type: cell-based; conditions: acted on HepG2 cell for 24 hour; FIG. 10
Description: (§1) In this example, HepG2 cells are individually incubated in DOX, DOX and IL-R57F89 mixed solution, and IL-R57F89-DOX for 1 hour, and measured the fluorescence intensity as FIG. 3.
DOX and PEG5K-GPLGI-P17-DOX are processed cytotoxicity test.

HepG2 cells [2] = test: DOX fluorescence intensity in HepG2 cytoplasm (intracellular translocation); type: cell-based; conditions: incubating time from 1 hour to 6 hours; FIG. 1B
Description: Besides, in order to ensure whether the cell-penetrating peptide is helpful to the translocation of DOX, after incubating for 1 to 6 hours, the DOX fluorescence intensity of in HepG2 tumor cell cytoplasm is measured and shown as FIG. 1B.
as §1

[3] = 0.1 g/mL trypsin, after 2 hours, FIG. 6A, 6B
[4] = after 24 hours, FIG. 4C, 5A, 5B
[5] = 100 µM peptide, 1 g/mL MMP-2, after digesting for 2 hours, FIG. 4A, 4B

Compound: GPLGI-P17: recognizable sequence-CPP GPLG-ILPWRWRFFPWRR (SEQ ID NO: 10) (GPLGILPWRWRFFPWRR; the sequence is synthesized)
digestion by MMP-2 (MMP-2; [4]): totally digested

Compound: CC[C@H](C)[C@H](N)C(=O)N[C@@H](CC(C)C)C(=O)N1CCC[C@H]1C(=O)N[C@@H](Cc1c[nH]c2ccccc12)C(=O)N[C@@H](CCCCN)C(=O)N[C@@H](Cc1c[nH]c2ccccc12)C(=O)N1CCC[C@H]1C(=O)N[C@@H](Cc1c[nH]c2ccccc12)C(=O)N[C@@H](Cc1c[nH]c2ccccc12)C(=O)N1CCC[C@H]1C(=O)N[C@@H](Cc1c[nH]c2ccccc12)C(=O)N[C@@H](CCCNC(=N)N)C(=O)N[C@@H](CCCNC(=N)N)C(=O)O [IL, Indolicidin]
cytotoxicity to HepG2 cell (cell viability) (HepG2 cells [1]): do not present obvious cytotoxicity

Compound: COc1cccc2c1C(=O)c1c(O)c3c(c(O)c1C2=O)C[C@@](O)(C(=O)CO)C[C@@H]3O[C@H]1C[C@H](N)[C@H](O)[C@H](C)O1 [DOX, doxorubicin]
cell viability of HepG2 (HepG2 cell): efficiently decrease the cell viability | DOX fluorescence intensity in HepG2 tumor cell cytoplasm, change with incubating time (HepG2 cells [2]): increased | cytotoxicity to HepG2 cell (cell viability) (HepG2 cells [1]): do not present obvious cytotoxicity

Second part, led by results:

digestion by trypsin (trypsin; [3]): almost digested completely | digestion by trypsin (trypsin; after about 1 hour, FIG. 7B): almost digested completely
Compound: GPLSILPWRWRFFPWRR [GPLSI-P17]

digestion by MMP-2 (MMP-2; [4]): totally digested
Compound: P4: MMP-2 cut-able sequence WGPLGILPW

digestion by MMP-2 (MMP-2; [5]): totally digested
Compound: P2: MMP-2 cut-able sequence WGPLGIAGW

digestion by MMP-2 (MMP-2; [5]): still can be digested by MMP-2
Compound: P1: MMP-2 cut-able sequence WGPLGIAGQW

digestion by trypsin (trypsin; [3]): almost digested completely | digestion by trypsin (trypsin; after about 1 hour, FIG. 7B): almost digested completely
Compound: ILPWRWRFFPWRR [IL-R57F89]
cytotoxicity to HepG2 cell (cell viability) (HepG2 cells [1]): do not present obvious cytotoxicity
